As a reminder, the inhibition is the relative decrease from the control value, in per cent. Usually IC50 stands for the concentration that gives 50% inhibition.

Calls of active or inactive are those of the source. The calls are words filed in the database; no cut-off is given here.

Data on 2 compounds can be found in ChEMBL document CHEMBL2321679, “Immunomodulatory activity of an anti-HSV-1 synthetic stigmastane analog” (Bioorg Med Chem, 2013).

The target of test [1] is Transcription factor p65 (Homo sapiens) (UniProt Q04206). Description: Inhibition of NF-kappaB p65-mediated TNFalpha release in HSV1 KOS infected human IOBA-NHC cells at 40 uM after 24 hrs by ELISA. The class given is cell-based. (In general: In an ELISA, binding on a coated surface is turned into a signal by an enzyme label.)
Chain of Transcription factor p65 (Homo sapiens) (Q04206 whole entry): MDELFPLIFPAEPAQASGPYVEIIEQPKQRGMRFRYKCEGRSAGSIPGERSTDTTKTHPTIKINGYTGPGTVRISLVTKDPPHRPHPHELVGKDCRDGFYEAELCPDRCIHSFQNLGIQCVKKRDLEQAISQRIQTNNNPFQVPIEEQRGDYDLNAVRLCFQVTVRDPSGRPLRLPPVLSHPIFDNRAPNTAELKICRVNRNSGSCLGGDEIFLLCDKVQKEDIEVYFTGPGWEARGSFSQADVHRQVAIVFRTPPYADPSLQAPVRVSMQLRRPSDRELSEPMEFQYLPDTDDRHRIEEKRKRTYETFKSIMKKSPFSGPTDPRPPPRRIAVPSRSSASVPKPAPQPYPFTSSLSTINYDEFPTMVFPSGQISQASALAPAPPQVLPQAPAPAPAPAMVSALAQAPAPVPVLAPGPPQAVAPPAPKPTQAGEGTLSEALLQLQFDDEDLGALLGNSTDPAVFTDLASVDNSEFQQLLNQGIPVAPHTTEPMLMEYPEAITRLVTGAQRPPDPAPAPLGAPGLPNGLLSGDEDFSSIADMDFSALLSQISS
The target is the same in test [2]. Briefly: Inhibition of NF-kappaB p65-mediated IL-8 release in HSV1 KOS infected human IOBA-NHC cells at 40 uM after 24 hrs by ELISA. The class given is cell-based.
The target is the same in test [3]. Briefly: Inhibition of NF-kappaB p65 activation in HSV1 KOS infected human IOBA-NHC cells assessed as reduction of NF-kappaB p65 translocation at 40 uM after 24 hrs by indirect immunofluorescence assay. The class given is cell-based.
Test [4] shares this target. Description: Inhibition of NF-kappaB p65 activation in HSV1 KOS infected human HCLE cells assessed as reduction of NF-kappaB p65 translocation at 40 uM after 24 hrs by indirect immunofluorescence assay. The class given is cell-based.
Test [5] has the same target. Briefly: Inhibition of NF-kappaB p65-mediated IL-8 release in HSV1 KOS infected human HCLE cells at 40 uM after 24 hrs by ELISA. The class given is cell-based.
For test [6] the target is unchanged. Briefly: Inhibition of NF-kappaB p65-mediated IL-6 release in HSV1 KOS infected human IOBA-NHC cells at 40 uM after 24 hrs by ELISA. The class given is cell-based.
Test [7] addresses Transcription factor p65 (Mus musculus) (UniProt Q04207). Briefly: Effect on NF-kappaB p65 activation in LPS-stimulated mouse J774A.1 cells assessed as NF-kappaB p65 translocation at 40 uM after 24 hrs by indirect immunofluorescence assay.
Test [8] deals with J774.A1. Briefly: Immunomodulatory activity in LPS-stimulated mouse J744A.1 cells assessed as decrease of Dusp2 gene expression at 40 uM after 6 hrs by RT-PCR analysis relative to control. The class given is functional.
Test [9] has as its system J774.A1. Description: Immunomodulatory activity in LPS-stimulated mouse J744A.1 cells assessed as increase of Il23a gene expression at 40 uM after 6 hrs by RT-PCR analysis relative to control. The class given is functional.
In test [10] the target is Transcription factor p65 (Homo sapiens) (UniProt Q04206). Briefly: Effect on NF-kappaB p65-mediated TNFalpha release in human HCLE cells at 40 uM after 24 hrs by ELISA. The class given is cell-based.
The nature of test [11]: Immunomodulatory activity in HSV1 KOS infected human HCLE cells assessed as increase of IL-1alpha gene expression at 40 uM after 6 hrs by RT-PCR analysis relative to control. The class given is functional.
For test [12], the system named is J774.A1. Description: Immunomodulatory activity in LPS-stimulated mouse J744A.1 cells assessed as decrease of Il1b gene expression at 40 uM after 6 hrs by RT-PCR analysis relative to control. The class given is functional.
The subject of test [13] is J774.A1. Briefly: Immunomodulatory activity in LPS-stimulated mouse J744A.1 cells assessed as increase of IL-10 gene expression at 40 uM after 6 hrs by RT-PCR analysis relative to control. The class given is functional.
Test [14] can be described thus: Immunomodulatory activity in HSV1 KOS infected human HCLE cells assessed as increase of CSF2 (GM-CSF) gene expression at 40 uM after 6 hrs by RT-PCR analysis relative to control. The class given is functional.
The test system of test [15] is J774.A1. Description: Inhibition of LPS-induced TNFalpha production in mouse J744A.1 cells after 24 hrs by ELISA. The class given is functional, cell-based.
For test [16], the system named is J774.A1. Description: Inhibition of LPS-induced IL-6 production in mouse J744A.1 cells after 24 hrs by ELISA. The class given is functional, cell-based.
For test [17], the system named is J774.A1. Briefly: Immunomodulatory activity in LPS-stimulated mouse J744A.1 cells assessed as increase of Csf1 gene expression at 40 uM after 6 hrs by RT-PCR analysis relative to control. The class given is functional.
The test system of test [18] is J774.A1. Description: Immunomodulatory activity in LPS-stimulated mouse J744A.1 cells assessed as increase of IL-6 gene expression at 40 uM after 6 hrs by RT-PCR analysis relative to control. The class given is functional.
In test [19] the target is Transcription factor p65 (Homo sapiens) (UniProt Q04206). Briefly: Increase of NF-kappaB p65-mediated IL-8 release in human HCLE cells at 40 uM after 24 hrs by ELISA. The class given is cell-based.
A short description of test [20]: Immunomodulatory activity in HSV1 KOS infected human HCLE cells assessed as increase of IL-1RL1 gene expression at 40 uM after 6 hrs by RT-PCR analysis relative to control. The class given is functional.
Test [21] relates to J774.A1. Briefly: Immunomodulatory activity in LPS-stimulated mouse J744A.1 cells assessed as increase of Slpi gene expression at 40 uM after 6 hrs by RT-PCR analysis relative to control. The class given is functional.
Test [22] relates to J774.A1. Briefly: Immunomodulatory activity in LPS-stimulated mouse J744A.1 cells assessed as increase of CXCL10 gene expression at 40 uM after 6 hrs by RT-PCR analysis relative to control. The class given is functional.
For test [23], the target named is Transcription factor p65 (Homo sapiens) (UniProt Q04206). Briefly: Effect on NF-kappaB p65-mediated IL-6 release in human IOBA-NHC cells at 40 uM after 24 hrs by ELISA. The class given is cell-based.
The subject of test [24] is J774.A1. Description: Immunomodulatory activity in LPS-stimulated mouse J744A.1 cells assessed as increase of Il12b gene expression at 40 uM after 6 hrs by RT-PCR analysis relative to control. The class given is functional.
Test [25] has as its system J774.A1. Description: Immunomodulatory activity in LPS-stimulated mouse J744A.1 cells assessed as increase of Socs2 gene expression at 40 uM after 6 hrs by RT-PCR analysis relative to control. The class given is functional.
The test system of test [26] is J774.A1. Briefly: Immunomodulatory activity in LPS-stimulated mouse J744A.1 cells assessed as increase of TLR4 gene expression at 40 uM after 6 hrs by RT-PCR analysis relative to control. The class given is functional.
Test [27] concerns J774.A1. Briefly: Immunomodulatory activity in LPS-stimulated mouse J744A.1 cells assessed as increase of Atf3 gene expression at 40 uM after 6 hrs by RT-PCR analysis relative to control. The class given is functional.
Test [28] is described as follows: Immunomodulatory activity in HSV1 KOS infected human HCLE cells assessed as increase of IL-8 gene expression at 40 uM after 6 hrs by RT-PCR analysis relative to control. The class given is functional.
Test [29] relates to J774.A1. Briefly: Immunomodulatory activity in LPS-stimulated mouse J744A.1 cells assessed as increase of CXCL11 gene expression at 40 uM after 6 hrs by RT-PCR analysis relative to control. The class given is functional.
Test [30] relates to J774.A1. Briefly: Inhibition of LPS-induced […] production in mouse J744A.1 cells at 40 uM after 24 hrs by ELISA. The class given is functional. The following applies: J774.A1, 24 h.
Test [31] concerns the target Transcription factor p65 (Homo sapiens) (UniProt Q04206). Description: Effect on NF-kappaB p65-mediated IL-6 release in human HCLE cells at 40 uM after 24 hrs by ELISA. The class given is cell-based.
Test [32] has the same target. Description: Effect on NF-kappaB p65-mediated TNFalpha release in human IOBA-NHC cells at 40 uM after 24 hrs by ELISA. The class given is cell-based.
Test [33] concerns J774.A1. Description: Immunomodulatory activity in LPS-stimulated mouse J744A.1 cells assessed as increase of Ifi47 gene expression at 40 uM after 6 hrs by RT-PCR analysis relative to control. The class given is functional.
Test [34] is described as follows: Immunomodulatory activity in HSV1 KOS infected human HCLE cells assessed as increase of CXCL2 gene expression at 40 uM after 6 hrs by RT-PCR analysis relative to control. The class given is functional.
The target of test [35] is Transcription factor p65 (Homo sapiens) (UniProt Q04206). Briefly: Increase of NF-kappaB p65-mediated IL-8 release in human IOBA-NHC cells at 40 uM after 24 hrs by ELISA. The class given is cell-based.

Chain of Transcription factor p65 (Mus musculus) (Q04207 whole entry): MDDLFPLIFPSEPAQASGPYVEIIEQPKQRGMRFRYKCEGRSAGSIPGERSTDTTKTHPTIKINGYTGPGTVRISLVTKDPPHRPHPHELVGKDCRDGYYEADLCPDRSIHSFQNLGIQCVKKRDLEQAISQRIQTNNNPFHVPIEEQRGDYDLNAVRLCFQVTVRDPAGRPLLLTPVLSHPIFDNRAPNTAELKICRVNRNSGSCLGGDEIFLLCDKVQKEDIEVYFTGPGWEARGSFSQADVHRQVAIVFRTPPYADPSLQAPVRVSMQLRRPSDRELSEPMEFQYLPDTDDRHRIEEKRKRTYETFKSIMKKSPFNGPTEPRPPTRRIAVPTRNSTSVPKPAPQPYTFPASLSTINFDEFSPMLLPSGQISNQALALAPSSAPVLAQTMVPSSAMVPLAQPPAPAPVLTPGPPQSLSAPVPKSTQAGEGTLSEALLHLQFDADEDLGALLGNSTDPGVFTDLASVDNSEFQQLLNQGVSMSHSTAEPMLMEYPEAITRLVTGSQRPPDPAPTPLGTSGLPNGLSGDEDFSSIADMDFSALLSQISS

As for `C[C@@H]1C[C@H]2[C@@H]3CCC4=CC(=O)C=C[C@]4(C)[C@@]3(F)[C@@H](O)C[C@]2(C)[C@@]1(O)C(=O)CO`, the inhibition entry in [1], in [2], in [5] and in test [6] was “Active” throughout. The inhibition entry in [3] and in test [4] was “inactive” in each case. The Activity in test [7] came out at 100%.

On to `CC[C@@H](C(C)C)[C@H](O)[C@@H](O)[C@@H](C)[C@H]1CC[C@H]2[C@@H]3CCC4=CC(=O)CC[C@]4(C)[C@H]3CC[C@]12C`, for which the inhibition entry in test [1] and in test [6] was “inactive” each time. The “fold change (FC)” value came out at 3.86 in the test on J774.A1 [8]; 3.19 with J774.A1 [9]; 2.9 in [11]; 2.58 with J774.A1 [12]; 1.27 in the test with J774.A1 [13]; 2.2 in [14]. For the same compound, the “fold change (FC)” value in the test on J774.A1 [17] is 4.42; in the test on J774.A1 [18], 1.97; in test [20], 5.2; with J774.A1 [21], 1.53; in the test on J774.A1 [22], 11.41; in the test with J774.A1 [24], 4.19. In addition, the “fold change (FC)” value in the test with J774.A1 [25] was 2.29; in the test on J774.A1 [26], 1.95; in the test with J774.A1 [27], 4.41; in test [28], 4.4; with J774.A1 [29], 6.01; in the test with J774.A1 [33], 2.49. Besides, the “fold change (FC)” value in [34] is reported as 2.9. In addition, the outcome in [10], in test [23], in [31] and in [32] was inactive. Further, the inhibition result in test [2] and in test [5] was “Active” throughout. For the same compound, the inhibition in test [3] was 22.2%; in the test on J774.A1 [15], “Dose-dependent effect”; in the test on J774.A1 [16] it was “Dose-dependent effect”; in [4], 5.7%. Besides, the IC50 in the test with J774.A1 [15] (J774.A1, 24 h) is 7 µM; in the test on J774.A1 [16] (J774.A1, 24 h), more than 40 µM. Also, the result in [19] and in test [35] was Active. At 40 µM the inhibition with J774.A1 [30] was 77.5%. Moreover, in [7], the Activity came to 87.9%.
